Common to all, as to assay: NCI tumour cell line growth inhibition, 48 h
The subject of assay [1] is 786-0 renal.
Assay [2] relates to A549 NSCLC.
Assay [3] concerns CAKI-1 renal.
For assay [4], the system named is IGROV1 ovarian.
Assay [5] has as its system K-562 leukemia.
In assay [6] the test system is LOX IMVI melanoma.
The subject of assay [7] is MDA-MB-435.
The subject of assay [8] is MDA-N.
Assay [9] relates to NCI-H460 lung.
Assay [10] has as its system OVCAR-4 ovarian.
Assay [11] has as its system OVCAR-8 ovarian.
Assay [12] deals with SF-539 CNS.
Assay [13] relates to SK-MEL-2 melanoma.
Assay [14] concerns SNB-75 CNS.
Assay [15] has as its system SW-620 colon.
Assay [16] has as its system UACC-257 melanoma.
In assay [17] the test system is UACC-62 melanoma.

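Results reflect a 48-hour exposure of cells in 96-well plates to compound at five concentrations. TGI denotes the concentration required for complete inhibition of growth.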 Some results are limits rather than exact numbers.

In the case of `O=C1/C(=C\c2ccc([N+](=O)[O-])o2)SC2N=C(COc3ccc(Cl)cc3)NN12` (stereo not drawn), the TGI in assay [1] was determined as 13.7 µM; in assay [2] it was 38.4 µM; in assay [3], 32.9 µM; in assay [4], 9.82 µM; in assay [5] it was 27 µM; in [6] it was 10.5 µM. Further, the TGI in assay [7] came out at 16.3 µM; in assay [8] it was 14.3 µM; in [9], 39.5 µM; in assay [10], 3.43 µM; in [11], 10.2 µM; in assay [12], 15.5 µM. Also, the TGI in [13] was determined as 37.2 µM; in assay [14] it was 29.7 µM; in assay [15] it was 9.92 µM; in assay [16], 16.9 µM.

Regarding `CN1CCOC1(C)CO` (stereo not drawn), the TGI in assay [1], in assay [2], in [3], in [4], in [5] and in assay [6] was greater than 100 µM each time. The TGI in assay [7], in [8], in assay [9], in assay [10], in assay [11] and in assay [12] was greater than 100 µM throughout. Also, the TGI in assay [13], in assay [14], in assay [15], in assay [16] and in assay [17] was greater than 100 µM throughout.

Take `CC(C)=CCS(=O)c1ccccc1NC1=CC(=O)CC(C)(C)C1` (stereo not drawn): the TGI in assay [1], in assay [2], in assay [3], in [4], in assay [5] and in [6] was greater than 100 µM each time. Also, the TGI in assay [7], in [8], in assay [9], in [10], in [11] and in assay [12] was greater than 100 µM each time. For the same compound, the TGI in [13], in assay [14], in [15], in [16] and in assay [17] was greater than 100 µM each time.

For `CCOC(=O)CC1c2ccc(O)cc2OC(=O)C1c1ccc([N+](=O)[O-])cc1` (stereo not drawn), the TGI in assay [1] was greater than 100 µM; in [2], greater than 100 µM; in [3] it was 94.5 µM; in [4], 60.5 µM; in [5], greater than 100 µM; in assay [6], greater than 100 µM. Also, the TGI in assay [7] was 56.1 µM; in assay [8], 93.5 µM; in [9], greater than 100 µM; in assay [10], 92.3 µM; in assay [11], 75.7 µM; in assay [12], greater than 100 µM. Moreover, the TGI in assay [13] is 40.1 µM; in assay [14], 56 µM; in [15] it was greater than 100 µM; in assay [16] it was 94.5 µM; in assay [17], 84.4 µM.

As to `CSC1=C(SC)SC(=C2SC3=C(SC(=C4SCCS4)S3)S2)S1`, the TGI in [1], in assay [2], in [3], in [4], in assay [6] and in assay [7] was greater than 100 µM each time. Besides, the TGI in assay [8], in assay [9], in [10], in assay [11], in assay [12] and in [13] was greater than 100 µM throughout. The TGI in [14], in assay [15], in assay [16] and in [17] was greater than 100 µM each time.

Turning to `Cc1cccc(/C=N/NC(=S)NCCc2ccccn2)n1`, the TGI in [1], in [2], in assay [3], in [4], in assay [5] and in [6] was greater than 100 µM throughout. In addition, the TGI is greater than 73.7 µM in assay [7]; greater than 100 µM in [8]; greater than 100 µM in [9]; greater than 100 µM in [10]; greater than 100 µM in [11]; greater than 73.3 µM in assay [12]. Moreover, the TGI is greater than 100 µM in [13]; 75 µM in [14]; greater than 100 µM in assay [15]; greater than 100 µM in [16]; 56.7 µM in assay [17].

On to `Cc1cccc2c1[C@]13OC(C)[C@]4(C)CC5OC(=O)[C@@]1(C)[C@@H]5[C@]34C(=O)O2` (stereo partly drawn), for which the TGI in [1], in assay [2], in assay [3], in assay [4], in assay [5] and in assay [6] was greater than 100 µM in each case. Also, the TGI in assay [7], in [8], in [9], in assay [11], in assay [12] and in assay [13] was greater than 100 µM in each case. The TGI in assay [14], in assay [15], in [16] and in [17] was greater than 100 µM in each case.

As to `COc1cc(/C=C2\C[C@H]3[C@@H]4CC=C5C[C@@H](O)CC[C@]5(C)[C@H]4CC[C@]3(C)C2=O)cc(OC)c1OC`, the TGI in assay [1] was 89.5 µM; in assay [2], greater than 100 µM; in [3], greater than 100 µM; in assay [4], greater than 100 µM; in assay [5], greater than 100 µM; in [6] it was 53.8 µM. In addition, the TGI in assay [7] was greater than 100 µM; in assay [8], 87.1 µM; in assay [9] it was greater than 100 µM; in assay [10], 96.6 µM; in assay [11] it was greater than 100 µM; in [12], greater than 100 µM. Moreover, the TGI was 65.4 µM in assay [13]; 96.3 µM in assay [14]; greater than 100 µM in assay [15]; greater than 100 µM in assay [16]; greater than 100 µM in [17].
